Results: the supplement of paper PMC10307832

Assays:
Assay in all cases: relative viability (nuclei count vs DMSO), 5 days (fraction); higher = more cells survive
BEN = tested on: BEN
In short: (§1)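 One day after seeding in 1536-well plates, lung cancer cell lines were dosed by pin tool. Dosing was either single-drug or a fixed anchor-drug dose plus five library-drug doses (not always all listed) in √10 steps. After 5 days, nuclei were stained in one fix-and-stain step and counted on 4× images, and relative viability is the nuclei count of treated wells over that of vehicle wells, given as the median of duplicate plates.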

CAL-12T = tested on: CAL-12T
In short: as §1

EKVX = tested on: EKVX
In short: as §1

HCC-366 = tested on: HCC-366
In short: as §1

HCC-44 = tested on: HCC-44
In short: as §1

LOU-NH91 = tested on: LOU-NH91
In short: as §1

LU99A = tested on: LU99A
In short: as §1

NCI-H1355 = tested on: NCI-H1355
In short: as §1

NCI-H1395 = tested on: NCI-H1395
In short: as §1

NCI-H1437 = tested on: NCI-H1437
In short: as §1

NCI-H1650 = tested on: NCI-H1650
In short: as §1

NCI-H1651 = tested on: NCI-H1651
In short: as §1

NCI-H1734 = tested on: NCI-H1734
In short: as §1

NCI-H1755 = tested on: NCI-H1755
In short: as §1

NCI-H1975 = tested on: NCI-H1975
In short: as §1

NCI-H2023 = tested on: NCI-H2023
In short: as §1

NCI-H2085 = tested on: NCI-H2085
In short: as §1

NCI-H2342 = tested on: NCI-H2342
In short: as §1

NCI-H358 = tested on: NCI-H358
In short: as §1

NCI-H441 = tested on: NCI-H441
In short: as §1

NCI-H460 = tested on: NCI-H460
In short: as §1

NCI-H838 = tested on: NCI-H838
In short: as §1

NC(=O)Nc1cc(-c2cccc(F)c2)sc1C(=O)N[C@H]1CCCNC1 [AZD7762] + O=C(CCCCCCC(=O)Nc1ccccc1)NO [Vorinostat] (partner 1 µM) showed a relative viability (BEN; first compound 0.01 µM) of 0.639, a relative viability (BEN; first compound 0.03162 µM) of 0.558 and a relative viability (BEN; first compound 0.1 µM) of 0.633. It also gave a relative viability (BEN; first compound 0.3162 µM) of 0.619, a relative viability (BEN; first compound 1 µM) of 0.543 and a relative viability (CAL-12T; first compound 0.01 µM) of 0.861. For the same molecule, the relative viability (CAL-12T; first compound 0.03162 µM) was 0.693, the relative viability (CAL-12T; first compound 0.1 µM) was 0.9 and the relative viability (CAL-12T; first compound 0.3162 µM) was 0.276. The relative viability (CAL-12T; first compound 1 µM) was 0.167, the relative viability (EKVX; first compound 0.01 µM) was 0.78 and the relative viability (EKVX; first compound 0.03162 µM) was 0.758. The relative viability (EKVX; first compound 0.1 µM) was 0.707, the relative viability (EKVX; first compound 0.3162 µM) was 0.794 and the relative viability (EKVX; first compound 1 µM) was 0.461. For the same molecule, the relative viability (HCC-366; first compound 0.01 µM) was 0.455, the relative viability (HCC-366; first compound 0.03162 µM) was 0.301 and the relative viability (HCC-366; first compound 0.1 µM) was 0.39. It also gave a relative viability (HCC-366; first compound 0.3162 µM) of 0.188, a relative viability (HCC-366; first compound 1 µM) of 0.104 and a relative viability (HCC-44; first compound 0.01 µM) of 1.08. It also gave a relative viability (HCC-44; first compound 0.03162 µM) of 1.11, a relative viability (HCC-44; first compound 0.1 µM) of 1.1 and a relative viability (HCC-44; first compound 0.3162 µM) of 1.1. For the same molecule, the relative viability (HCC-44; first compound 1 µM) was 1.02, the relative viability (LOU-NH91; first compound 0.01 µM) was 0.87 and the relative viability (LOU-NH91; first compound 0.03162 µM) was 0.971. For the same molecule, the relative viability (LOU-NH91; first compound 0.1 µM) was 0.917, the relative viability (LOU-NH91; first compound 0.3162 µM) was 0.741 and the relative viability (LOU-NH91; first compound 1 µM) was 0.646. The relative viability (LU99A; first compound 0.01 µM) was 0.469, the relative viability (LU99A; first compound 0.03162 µM) was 0.536 and the relative viability (LU99A; first compound 0.1 µM) was 0.561. The relative viability (LU99A; first compound 0.3162 µM) was 0.345, the relative viability (LU99A; first compound 1 µM) was 0.171 and the relative viability (NCI-H1355; first compound 0.01 µM) was 0.609. It also gave a relative viability (NCI-H1355; first compound 0.03162 µM) of 0.629, a relative viability (NCI-H1355; first compound 0.1 µM) of 0.649 and a relative viability (NCI-H1355; first compound 0.3162 µM) of 0.647. It also gave a relative viability (NCI-H1355; first compound 1 µM) of 0.379, a relative viability (NCI-H1395; first compound 0.01 µM) of 0.721 and a relative viability (NCI-H1395; first compound 0.03162 µM) of 0.84. The relative viability (NCI-H1395; first compound 0.1 µM) was 0.684, the relative viability (NCI-H1395; first compound 0.3162 µM) was 0.32 and the relative viability (NCI-H1395; first compound 1 µM) was 0.336. The relative viability (NCI-H1437; first compound 0.01 µM) was 0.964, the relative viability (NCI-H1437; first compound 0.03162 µM) was 0.85 and the relative viability (NCI-H1437; first compound 0.1 µM) was 0.88. It also gave a relative viability (NCI-H1437; first compound 0.3162 µM) of 0.639, a relative viability (NCI-H1437; first compound 1 µM) of 0.49 and a relative viability (NCI-H1650; first compound 0.01 µM) of 0.622. For the same molecule, the relative viability (NCI-H1650; first compound 0.03162 µM) was 0.719, the relative viability (NCI-H1650; first compound 0.1 µM) was 0.651 and the relative viability (NCI-H1650; first compound 0.3162 µM) was 0.392. For the same molecule, the relative viability (NCI-H1650; first compound 1 µM) was 0.157, the relative viability (NCI-H1651; first compound 0.01 µM) was 0.569 and the relative viability (NCI-H1651; first compound 0.03162 µM) was 0.727. For the same molecule, the relative viability (NCI-H1651; first compound 0.1 µM) was 0.587, the relative viability (NCI-H1651; first compound 0.3162 µM) was 0.533 and the relative viability (NCI-H1651; first compound 1 µM) was 0.272. For the same molecule, the relative viability (NCI-H1734; first compound 0.01 µM) was 0.772, the relative viability (NCI-H1734; first compound 0.03162 µM) was 0.723 and the relative viability (NCI-H1734; first compound 0.1 µM) was 0.738. It also gave a relative viability (NCI-H1734; first compound 0.3162 µM) of 0.415, a relative viability (NCI-H1734; first compound 1 µM) of 0.251 and a relative viability (NCI-H1755; first compound 0.01 µM) of 0.804. For the same molecule, the relative viability (NCI-H1755; first compound 0.03162 µM) was 0.723, the relative viability (NCI-H1755; first compound 0.1 µM) was 0.72 and the relative viability (NCI-H1755; first compound 0.3162 µM) was 0.663. For the same molecule, the relative viability (NCI-H1755; first compound 1 µM) was 0.423, the relative viability (NCI-H1975; first compound 0.01 µM) was 0.725 and the relative viability (NCI-H1975; first compound 0.03162 µM) was 0.641. It also gave a relative viability (NCI-H1975; first compound 0.1 µM) of 0.655, a relative viability (NCI-H1975; first compound 0.3162 µM) of 0.626 and a relative viability (NCI-H1975; first compound 1 µM) of 0.401. The relative viability (NCI-H2023; first compound 0.01 µM) was 0.548, the relative viability (NCI-H2023; first compound 0.03162 µM) was 0.415 and the relative viability (NCI-H2023; first compound 0.1 µM) was 0.257. For the same molecule, the relative viability (NCI-H2023; first compound 0.3162 µM) was 0.184, the relative viability (NCI-H2023; first compound 1 µM) was 0.0942 and the relative viability (NCI-H2085; first compound 0.01 µM) was 0.788. It also gave a relative viability (NCI-H2085; first compound 0.03162 µM) of 0.784, a relative viability (NCI-H2085; first compound 0.1 µM) of 0.862 and a relative viability (NCI-H2085; first compound 0.3162 µM) of 0.803. It also gave a relative viability (NCI-H2085; first compound 1 µM) of 0.628, a relative viability (NCI-H2342; first compound 0.01 µM) of 0.715 and a relative viability (NCI-H2342; first compound 0.03162 µM) of 0.85. For the same molecule, the relative viability (NCI-H2342; first compound 0.1 µM) was 0.722, the relative viability (NCI-H2342; first compound 0.3162 µM) was 0.74 and the relative viability (NCI-H2342; first compound 1 µM) was 0.633. The relative viability (NCI-H358; first compound 0.01 µM) was 0.687, the relative viability (NCI-H358; first compound 0.03162 µM) was 0.667 and the relative viability (NCI-H358; first compound 0.1 µM) was 0.658. For the same molecule, the relative viability (NCI-H358; first compound 0.3162 µM) was 0.346, the relative viability (NCI-H358; first compound 1 µM) was 0.0934 and the relative viability (NCI-H441; first compound 0.01 µM) was 1.09. It also gave a relative viability (NCI-H441; first compound 0.03162 µM) of 0.804, a relative viability (NCI-H441; first compound 0.1 µM) of 1.01 and a relative viability (NCI-H441; first compound 0.3162 µM) of 0.864. The relative viability (NCI-H441; first compound 1 µM) was 0.312, the relative viability (NCI-H460; first compound 0.01 µM) was 0.885 and the relative viability (NCI-H460; first compound 0.03162 µM) was 0.63. For the same molecule, the relative viability (NCI-H460; first compound 0.1 µM) was 0.684, the relative viability (NCI-H460; first compound 0.3162 µM) was 0.216 and the relative viability (NCI-H460; first compound 1 µM) was 0.0532. For the same molecule, the relative viability (NCI-H838; first compound 0.01 µM) was 0.731, the relative viability (NCI-H838; first compound 0.03162 µM) was 0.726 and the relative viability (NCI-H838; first compound 0.1 µM) was 0.76. It also gave a relative viability (NCI-H838; first compound 0.3162 µM) of 0.745 and a relative viability (NCI-H838; first compound 1 µM) of 0.272.
